The values that follow come from patent US20190167569A1, “ENHANCED HERBAL EXTRACTION AND TRANSDERMAL DELIVERY” (priority 2016, published 2019).

Read-outs that look alike come from different tables or passages of the source.

Series [1] is classed as in vitro ADME. The procedure:
(§1) The diffusion rates of different rosemary extract solutions through diffusion cells that mimic human skin were calculated and analyzed using UV-VIS spectrophotometry to measure rosmarinic acid content. Franz diffusion cells from Permegear, USA, with 47 mm, 200 nm inert polycarbonate membrane filters, were used with 5 ml extract solution samples. The speed of diffusion of different rosemary extracts were calculated at 1, 2, 3, 4, 10, 20, 30, 60, 120, 360 minutes (and up to 1 day of duration) at a rotational speed of 50 rpm to mimic a dermal application. The amount of rosmarinic acid that passed through the filter was determined by absorbance graphics on a UV spectrophotometer (Agilent 8453). A standard calibration curve was determined for rosmarinic acid and the absorbances were measured at 323 nm to determine the % concentrations released.
For a reference or baseline sample, a decoction of rosemary in water alone was prepared at a 1:5 ratio.
A soapwort decoction (an extraction medium with a saponin content) was prepared in water at a 1:5 ratio. A consequent decoction of rosemary (i.e., a rosemary extract solution) was prepared in the mentioned soapwort decoction at a 1:5 ratio. […] Thus, the transdermal delivery of rosmarinic acid using the method of the present invention is much faster than classical water decoctions predominantly used in modern dermal or cosmetic formulations.
as §1, with “5, 40” for “4, 10, 20, 30, 60, 120, 360”
A soapwort decoction (an extraction medium with a saponin content) was prepared in water at a 1:5 ratio. A decoction of rosemary (i.e., a rosemary extract solution) was prepared in 5×distilled water. The mentioned soapwort decoction and the water decoction of the rosemary leaves were then mixed at a 1:1 ratio. The following diffusion values were measured for this mixture: 14% at minute 1, 49.4% at minute 3, and 100% at minute 5.
The diffusion rates of rosemarinic acid in rosemary essential oil through diffusion cells that mimic human skin were calculated and analyzed using UV-VIS spectrophotometry to measure rosmarinic acid content. Franz diffusion cells from Permegear, USA, with 47 mm, 200 nm inert polycarbonate membrane filters, were used with 5 ml extract solution samples. The speed of diffusion of different rosemary extracts were calculated at 1, 2, 3, 4, 7, 10, 20, 40 minutes (and up to 1 day of duration) at a rotational speed of 50 rpm to mimic a dermal application. The amount of rosmarinic acid that passed through the filter was determined by absorbance graphics on a UV spectrophotometer (Agilent 8453). A standard calibration curve was determined for rosmarinic acid and the absorbances were measured at 323 nm to determine the % concentrations released.

Series [2] in a line: Diffusion of carvacrol in thyme essential oil through Franz diffusion cells that mimic human skin (UV-VIS, 272 nm). In kind it is in vitro ADME. Here is the method:
The diffusion rates of carvacrol in thyme (Tymus vulgaris) essential oil through diffusion cells that mimic human skin were calculated and analyzed using UV-VIS spectrophotometry to measure carvacrol content. Franz diffusion cells from Permegeaer, USA, with 47 mm, 200 nm inert polycarbonate membrane filters, were used with 5 ml extract solution samples. […] The amount of carvacrol that passed through the filter was determined by absorbance graphics on a UV spectrophotometer (Agilent 8453). A standard calibration curve was determined for carvacrol and the absorbances were measured at 272 nm to determine the % concentrations released.
The diffusion rates of carvacrol in thyme (Tymus vulgaris) essential oil (0.05 ml of thyme essential oil) dispersed in 1 ml of soapwort extract solution through diffusion cells that mimic human skin were calculated and analyzed using UV-VIS spectrophotometry to measure carvacrol content. Franz diffusion cells from Permegear, USA, with 47 mm, 200 nm inert polycarbonate membrane filters, were used with 5 ml extract solution samples. The speed of diffusion of different thyme extracts were calculated at 1, 3, 5, 7, 10, 20, 40 minutes (and up to 1 day of duration) at a rotational speed of 50 rpm to mimic a dermal application. The amount of carvacrol that passed through the filter was determined by absorbance graphics on a UV spectrophotometer (Agilent 8453). A standard calibration curve was determined for carvacrol and the absorbances were measured at 272 nm to determine the % concentrations released.
The diffusion rates of carvacrol in thyme (Tymus vulgaris) essential oil (0.05 ml of thyme essential oil dispersed in 1 ml of licorice extract solution) through diffusion cells that mimic human skin were calculated and analyzed using UV-VIS spectrophotometry to measure carvacrol content. Franz diffusion cells from Permegeaer, USA, with 47 mm, 200 nm inert polycarbonate membrane filters, were used with 5 ml extract solution samples. The speed of diffusion of different thyme extracts were calculated at 1, 2, 3, 4, 7, 10, 20, 30, 40 minutes (and up to 1 day of duration) at a rotational speed of 50 rpm to mimic a dermal application. The amount of carvacrol that passed through the filter was determined by absorbance graphics on a UV spectrophotometer (Agilent 8453). A standard calibration curve was determined for carvacrol and the absorbances were measured at 272 nm to determine the % concentrations released.

Series [3] is classed as physicochemical. The procedure: 100% of the carvacrol present in soapwort extract solution was released at the end of 40 minutes whereas about 90% of carvacrol present in licorice extract solution at the end of 40 minutes. When the solubilities were compared, it was observed that 0.5% of thyme oil was clearly dissolved in soapwort water extract and maximum 2% of thyme oil could be homogenously dispersed in soapwort. The maximum amount of thyme oil dissolved in licorice was 0.5%. Absorbance results clearly indicate that soapwort water extract has higher potential to dissolve and diffuse carvacrol of Thyme essential oil than does licorice.

As to `O=C(/C=C/c1ccc(O)c(O)c1)O[C@H](Cc1ccc(O)c(O)c1)C(=O)O` [Rosmarinic Acid, rosmarinic acid], in series [1], the absorbance values result is “minimal”, the “fraction of the control sample diffusion time” value is 1/30, the “penetration rate relative to control sample (only water decoction of rosemary)” value is listed as “approximately 30 ×” and the “transdermal delivery (in words)” value was “negligible”. Further, the rosemarinic acid released in series [1] (40 min) is recorded as 0%. In series [1] (150 min), the “rosmarinic acid content passed through the membrane” value is 100%.
In the case of `Cc1ccc(C(C)C)cc1O` [carvacrol], the diffusion in series [2] (0.05 ml thyme essential oil in 1 ml licorice extract solution, after 24 hours) amounted to 100%. In addition, the diffusion value in series [2] (0.05 ml thyme essential oil in 1 ml licorice extract solution, minute 1) is recorded as 0%; in series [2] (0.05 ml thyme essential oil in 1 ml licorice extract solution, minute 2) it was 3.98%; in series [2] (0.05 ml thyme essential oil in 1 ml licorice extract solution, minute 3), 14.41%; in series [2] (0.05 ml thyme essential oil in 1 ml licorice extract solution, minute 4), 32.98%; in series [2] (0.05 ml thyme essential oil in 1 ml licorice extract solution, minute 7) it was 42.59%; in series [2] (0.05 ml thyme essential oil in 1 ml licorice extract solution, minute 10) it was 56.35%. The diffusion value in series [2] (0.05 ml thyme essential oil in 1 ml licorice extract solution, minute 20) came out at 67.61%; in series [2] (0.05 ml thyme essential oil in 1 ml licorice extract solution, minute 30), 77.73%; in series [2] (0.05 ml thyme essential oil in 1 ml soapwort extract solution, minute 1), 8.20%; in series [2] (0.05 ml thyme essential oil in 1 ml soapwort extract solution, minute 3) it was 26.43%; in series [2] (0.05 ml thyme essential oil in 1 ml soapwort extract solution, minute 5) it was 44.75%; in series [2] (0.05 ml thyme essential oil in 1 ml soapwort extract solution, minute 7), 66.29%. In addition, the diffusion value was 77.15% in series [2] (0.05 ml thyme essential oil in 1 ml soapwort extract solution, minute 10); 91.39% in series [2] (0.05 ml thyme essential oil in 1 ml soapwort extract solution, minute 20); 100% in series [2] (0.05 ml thyme essential oil in 1 ml soapwort extract solution, minute 40). The “transdermal delivery (in words)” value in series [2] (thyme essential oil alone) is listed as “negligible”. In addition, in series [2] (thyme essential oil alone, end of 40 minutes), the carvacrol released worked out at 0%. For the same compound, in series [2] (thyme essential oil alone, end of 48 hours), the absorbance values result is “minimal”.
As to thyme oil, in series [3], the “maximum amount homogenously dispersed in soapwort” value stood at 2%.
